Data from patent US20070031480A1, “Enhanced delivery of sphingolipids” (priority 2003, published 2007).

What was measured:
[1] = tested on: J774 murine macrophage cells; experiment: MTT cytotoxicity assay of free ceramide and liposomes, 72 hours; assay type: cell-based; conditions: liposome concentration corrected for ceramide content
Procedure: (§1) Human estrogen receptor negative MDA435/LCC6 wild-type and MDR-1 gene transfected MDA435/LCC6^MDR1 multidrug resistant breast cancer cell lines were obtained from Dr. Robert Clark, Georgetown University, Washington, D.C. J774 murine macrophage cells were obtained from ATCC (Rockville, Md.). All cells were grown as adherent monolayer cultures in 25-cm^2 Falcon flasks in DMEM supplemented with 10% fetal bovine serum and 1% L-glutamine. Cells were maintained at 37° C. in humidified air with 5% CO2. Cells were sub-cultured weekly using 0.25% trypsin with 1 mM EDTA (MDA435/LCC6) or gentle cell scraping (J774).
(§2) Cell suspensions were diluted 1:1 with trypan blue, counted with a hemocytometer and seeded into 96-well microtitre plates at […] in 0.2 ml complete medium. […] After 72 hours the cell viability was assessed using a conventional 3-(4,5-dimethylthiazol-2-yl)-2,5-diphenyl tetrazolium bromide (MTT) dye reduction assay. […] The formazan dye was measured spectrophotometrically using a Dynex plate reader (570 nm). […] The cytotoxic effect of each treatment was expressed as percent cell viability relative to untreated control cells (% control) and is defined as: [(Abs570 treated cells)/( Abs570 control cells)]×100.
The inventors next determined whether the stable formulation of C16-ceramide into CHEMS liposomes translated into enhanced cytotoxicity in vitro. […]

[2] = tested on: MDA435/LCC6 wild-type and MDR-1 gene transfected MDA435/LCC6MDR1 breast cancer cells; experiment: MTT cytotoxicity assay of free ceramides, 72 hours; assay type: cell-based, human; conditions: free ceramide, wild-type and MDR1 MDA435/LCC6 cells, not separated
Procedure: as §1
as §2, with “medium. The perimeter wells were not used and contained 0.2 ml sterile water.” for “medium.”, “cells)]×100. […]” for “cells)]×100.”

Row | Structure (SMILES) | IC50 [1] [µM] | IC50 [2] [µM]
1 | CCCCCCCCCCCCC/C=C/[C@@H](O)[C@H](CO)NC(=O)CCCCC [C6-ceramide] | 14.4 | –
2 | CCCCCCCCCCCCC/C=C/[C@@H](O)[C@H](CO)NC(=O)CCCCCCCCC [C10-ceramide] | – | ~45
3 | CCCCCCCCCCCCC/C=C/[C@@H](O)[C@H](CO)NC(=O)CCCCCCCCCCCCCCC [C16-ceramide] | > 100 | –
